Data published in ChEMBL document CHEMBL1201862, “PubChem BioAssay data set” (2004).
The source made the active and inactive calls.

Key:
[1] = blockers of HIV-1 envelope-mediated cell-cell fusion – cherry-pick, dose response (AID 652057); assay type: functional, cell-based
[2] = HIV-1 AD8 envelope cell-cell fusion blockers – cherry-pick, dose response (AID 652062); assay type: functional, cell-based;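 further: luciferase signal from cell-cell fusion driven by HIV-1 clade B AD8 Env; potency is for inhibitors of fusion seen as a drop in luminescence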
[3] = off-target signal loss in HeLa-CEM21 co-culture – HeLa F-luc CTL cells, cherry-picked, counter-screen for HIV-1 Env fusion inhibitor project, dose response (AID 652040); assay type: functional, cell-based;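 further: potency for signal decrease marking cytotoxic or nonspecific inhibition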
[4] = blockers of HIV-1 ZM109 envelope-driven cell-cell fusion – HeLa effector, CEM target cells, luciferase, cherry-pick, dose response (AID 652058); assay type: functional, cell-based;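 further: luciferase signal from HIV-1 Env mediated cell-cell fusion of effector and target cells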
[5] = molecular target: T1, Microphthalmia-associated transcription factor (Homo sapiens, UniProt O75030); test: reducers of TRPM1 reporter luminescence, concentration series – cell-based, SK-MEL-5, cherry-picked, set 3, MITF inhibitor project, dose response (AID 493073); assay type: functional;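 further: SK-MEL-5 melanoma cells with luciferase driven by the MITF target TRPM1 promoter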
T1 sequence (O75030 whole entry): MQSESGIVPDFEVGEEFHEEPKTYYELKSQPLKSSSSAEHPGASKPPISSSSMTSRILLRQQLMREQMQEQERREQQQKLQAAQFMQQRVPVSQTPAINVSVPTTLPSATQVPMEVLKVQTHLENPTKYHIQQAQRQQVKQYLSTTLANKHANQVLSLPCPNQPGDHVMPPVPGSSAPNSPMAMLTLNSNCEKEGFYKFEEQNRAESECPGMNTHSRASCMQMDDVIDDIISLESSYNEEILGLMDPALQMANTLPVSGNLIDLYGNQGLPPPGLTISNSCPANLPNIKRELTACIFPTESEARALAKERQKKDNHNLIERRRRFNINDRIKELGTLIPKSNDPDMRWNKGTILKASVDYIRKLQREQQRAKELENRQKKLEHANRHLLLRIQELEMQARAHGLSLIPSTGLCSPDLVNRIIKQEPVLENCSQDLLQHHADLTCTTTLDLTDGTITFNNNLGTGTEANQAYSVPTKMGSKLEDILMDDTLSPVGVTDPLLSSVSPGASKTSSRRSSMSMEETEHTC

[6] = microbe, parasite or virus in culture; assay type: functional; settings: Mycobacterium tuberculosis
[7] = molecular target: T2, Replicative DNA helicase DnaB (Mycobacterium tuberculosis, UniProt P9WMR3); test: DnaB intein splicing inhibitors, dose response, biochemical, cell-free fluorescence (AID 449749); assay type: functional
T2 sequence (P9WMR3 whole entry): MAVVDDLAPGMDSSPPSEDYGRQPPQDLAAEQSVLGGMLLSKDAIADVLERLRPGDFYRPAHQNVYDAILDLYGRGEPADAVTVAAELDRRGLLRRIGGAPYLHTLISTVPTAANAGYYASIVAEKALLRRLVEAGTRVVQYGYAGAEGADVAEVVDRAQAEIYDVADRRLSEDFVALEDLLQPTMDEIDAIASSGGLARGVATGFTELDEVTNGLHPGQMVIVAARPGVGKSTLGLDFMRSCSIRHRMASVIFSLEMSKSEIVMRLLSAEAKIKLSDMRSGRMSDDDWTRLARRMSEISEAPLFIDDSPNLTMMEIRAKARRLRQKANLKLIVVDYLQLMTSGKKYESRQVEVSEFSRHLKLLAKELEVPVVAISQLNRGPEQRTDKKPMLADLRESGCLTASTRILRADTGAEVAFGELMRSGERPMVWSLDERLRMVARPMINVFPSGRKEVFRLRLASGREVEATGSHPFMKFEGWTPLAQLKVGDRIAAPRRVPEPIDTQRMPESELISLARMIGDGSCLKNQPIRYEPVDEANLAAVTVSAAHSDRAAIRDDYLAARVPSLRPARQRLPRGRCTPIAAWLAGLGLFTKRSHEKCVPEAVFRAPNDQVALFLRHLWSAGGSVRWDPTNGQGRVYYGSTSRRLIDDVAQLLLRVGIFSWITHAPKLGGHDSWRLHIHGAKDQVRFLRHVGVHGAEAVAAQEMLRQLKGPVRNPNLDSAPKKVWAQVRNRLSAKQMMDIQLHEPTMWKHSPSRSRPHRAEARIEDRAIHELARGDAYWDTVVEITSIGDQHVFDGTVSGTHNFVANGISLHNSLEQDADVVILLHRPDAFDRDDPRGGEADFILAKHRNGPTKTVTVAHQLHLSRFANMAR

[8] = molecular target: T3, Protein RecA (Mycobacterium tuberculosis, UniProt P9WHJ3); test: Fluorescence Cell-Free Homogeneous Dose Retest to Identify Inhibitors of RecA-Intein Splicing Activity. [Related pubchem assays (depositor defined):AID2097, AID2223, AID489010, AID492950]; assay type: functional
T3 sequence (P9WHJ3 whole entry): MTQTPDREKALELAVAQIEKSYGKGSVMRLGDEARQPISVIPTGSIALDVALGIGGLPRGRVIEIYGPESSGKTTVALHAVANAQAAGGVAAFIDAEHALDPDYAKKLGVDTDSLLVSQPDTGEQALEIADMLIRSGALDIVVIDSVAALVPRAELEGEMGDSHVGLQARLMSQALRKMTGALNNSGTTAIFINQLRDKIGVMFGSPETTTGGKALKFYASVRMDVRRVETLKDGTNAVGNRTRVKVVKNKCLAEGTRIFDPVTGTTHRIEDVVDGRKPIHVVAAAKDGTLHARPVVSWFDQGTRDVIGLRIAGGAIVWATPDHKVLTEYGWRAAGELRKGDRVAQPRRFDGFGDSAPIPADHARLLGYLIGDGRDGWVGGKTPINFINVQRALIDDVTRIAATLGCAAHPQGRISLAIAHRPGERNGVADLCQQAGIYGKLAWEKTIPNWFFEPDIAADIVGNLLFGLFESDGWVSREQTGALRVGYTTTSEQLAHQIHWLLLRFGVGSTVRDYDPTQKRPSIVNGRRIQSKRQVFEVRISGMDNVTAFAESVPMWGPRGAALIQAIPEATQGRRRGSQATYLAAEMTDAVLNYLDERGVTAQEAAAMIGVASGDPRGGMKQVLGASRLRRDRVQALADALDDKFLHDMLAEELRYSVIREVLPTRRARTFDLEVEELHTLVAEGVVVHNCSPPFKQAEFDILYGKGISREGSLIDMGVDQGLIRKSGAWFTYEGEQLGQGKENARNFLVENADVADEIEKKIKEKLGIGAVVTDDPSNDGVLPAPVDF

[9] = Luminescence Cell-Based Dose Response HTS to Identify Inhibitors of 5'UTR Stem-Loop Driven Prion Protein mRNA Translation in H4 Neuroglioblastoma Cells. [Related pubchem assays: 1827 (Project Summary), 1813 (Primary HTS)]; assay type: functional
[10] = THP-1 cell cytotoxicity, dose response, cytotoxicity control for non-replicating M. tuberculosis project (AID 489025); assay type: functional
[11] = cells; assay type: functional
[12] = tested on: H9c2; test: cells; assay type: functional, cell-based; settings: Rattus norvegicus, H9c2, Myocardium;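 further: confirmatory concentration-response retest of ultra-high-throughput screening hits for modulation of myocardial damage; cell death induced by hydrogen peroxide oxidative stress; compound pretreatment for 60 min then peroxide exposure for 2 h; potency is for protecting the cells against peroxide damage rather than for killing them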
[13] = alpha-synuclein stem-loop luciferase translation blockers – H4 neuroglioma cells, luminescence, confirmation (AID 1988); assay type: functional, cell-based
[14] = Vero E6 cell cytotoxicity, dose response, cytotoxicity control for non-replicating M. tuberculosis project, secondary assay (AID 492998); assay type: functional, VeroE6; settings: Vero C1008
[15] = luciferase reporter signal suppression in cells – H4 neuroglioma cells, luminescence, dose response (AID 1990); assay type: functional, cell-based
[16] = tested on: Vero; test: cells; assay type: functional, cell-based; settings: Chlorocebus sabaeus
[17] = intracellular Trypanosoma cruzi inhibitors in host cells – cell-based, plate reader, cherry-pick samples, set 3, dose response (AID 651818); assay type: functional;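 further: compounds incubated with infected cells for about four days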
[18] = molecular target: T4, Streptokinase A (Streptococcus pyogenes serotype M1, UniProt P10520); test: viability-normalized secreted streptokinase activity reduction – plasminogen activation absorbance, OD405, dose response (AID 1914); assay type: functional, Streptococcus pyogenes M1 GAS;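 further: secreted streptokinase activity via plasminogen activation per viability signal from cell pellet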
T4 sequence (P10520 whole entry): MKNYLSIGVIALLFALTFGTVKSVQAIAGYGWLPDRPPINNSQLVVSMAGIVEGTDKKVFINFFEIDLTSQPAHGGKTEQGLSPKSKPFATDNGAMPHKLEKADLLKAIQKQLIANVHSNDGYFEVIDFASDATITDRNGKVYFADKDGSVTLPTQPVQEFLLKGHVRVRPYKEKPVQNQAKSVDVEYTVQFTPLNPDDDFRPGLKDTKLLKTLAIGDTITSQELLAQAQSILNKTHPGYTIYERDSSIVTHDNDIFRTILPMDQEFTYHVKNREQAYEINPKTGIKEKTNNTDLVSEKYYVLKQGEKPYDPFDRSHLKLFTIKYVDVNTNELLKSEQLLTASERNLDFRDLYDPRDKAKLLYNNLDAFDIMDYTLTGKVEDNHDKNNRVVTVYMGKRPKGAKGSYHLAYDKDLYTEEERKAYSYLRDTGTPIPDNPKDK

[19] = tested on: Streptococcus; test: GAS UMAA2166 growth inhibition – luminescence, BacTiterGlo, counter-screen for streptokinase expression inhibitor project, dose response (AID 1915); assay type: functional, organism-based;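 further: potency for reduction of bacterial viability or growth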
[20] = tested on: Streptococcus sp. 'group A'; test: Streptococcus pyogenes SK(-)GAS viability under kanamycin – luminescence, BacTiterGlo, confirmation, counter-screen for streptokinase expression inhibitor project, dose response (AID 1900); assay type: functional, organism-based
[21] = molecular target: Paired box protein Pax-8 (Homo sapiens, UniProt Q06710); test: PAX8 transcriptional activity inhibition in RMG-I – RMG-I cells, luciferase, cherry-pick, dose response (AID 687027); assay type: functional, cell-based;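 further: luciferase reporter driven by Pax8 target thyroperoxidase promoter measured by SteadyGlo luminescence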
Chain of Paired box protein Pax-8 (Q06710 whole entry, the tested form may be a part): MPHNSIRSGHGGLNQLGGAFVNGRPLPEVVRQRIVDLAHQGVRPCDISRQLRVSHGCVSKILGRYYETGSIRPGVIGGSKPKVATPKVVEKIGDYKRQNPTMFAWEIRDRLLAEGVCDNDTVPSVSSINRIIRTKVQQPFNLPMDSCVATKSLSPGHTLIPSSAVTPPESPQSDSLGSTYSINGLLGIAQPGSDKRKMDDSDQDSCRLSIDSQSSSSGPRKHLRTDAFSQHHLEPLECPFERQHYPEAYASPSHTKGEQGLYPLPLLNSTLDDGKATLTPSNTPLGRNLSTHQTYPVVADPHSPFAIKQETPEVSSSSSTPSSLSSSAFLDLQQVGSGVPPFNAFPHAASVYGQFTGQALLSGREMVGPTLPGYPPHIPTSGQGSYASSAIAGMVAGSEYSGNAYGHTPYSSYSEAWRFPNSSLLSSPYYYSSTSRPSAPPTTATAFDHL

[22] = molecular target: Disintegrin and metalloproteinase domain-containing protein 17 (Homo sapiens, UniProt P78536); test: inhibition of ADAM17 substrate cleavage – biochemical, quenched FRET substrate, counter-screen for ADAM10 exosite inhibitor project, dose response (AID 743253)
Chain of Disintegrin and metalloproteinase domain-containing protein 17 (P78536 whole entry, the tested form may be a part): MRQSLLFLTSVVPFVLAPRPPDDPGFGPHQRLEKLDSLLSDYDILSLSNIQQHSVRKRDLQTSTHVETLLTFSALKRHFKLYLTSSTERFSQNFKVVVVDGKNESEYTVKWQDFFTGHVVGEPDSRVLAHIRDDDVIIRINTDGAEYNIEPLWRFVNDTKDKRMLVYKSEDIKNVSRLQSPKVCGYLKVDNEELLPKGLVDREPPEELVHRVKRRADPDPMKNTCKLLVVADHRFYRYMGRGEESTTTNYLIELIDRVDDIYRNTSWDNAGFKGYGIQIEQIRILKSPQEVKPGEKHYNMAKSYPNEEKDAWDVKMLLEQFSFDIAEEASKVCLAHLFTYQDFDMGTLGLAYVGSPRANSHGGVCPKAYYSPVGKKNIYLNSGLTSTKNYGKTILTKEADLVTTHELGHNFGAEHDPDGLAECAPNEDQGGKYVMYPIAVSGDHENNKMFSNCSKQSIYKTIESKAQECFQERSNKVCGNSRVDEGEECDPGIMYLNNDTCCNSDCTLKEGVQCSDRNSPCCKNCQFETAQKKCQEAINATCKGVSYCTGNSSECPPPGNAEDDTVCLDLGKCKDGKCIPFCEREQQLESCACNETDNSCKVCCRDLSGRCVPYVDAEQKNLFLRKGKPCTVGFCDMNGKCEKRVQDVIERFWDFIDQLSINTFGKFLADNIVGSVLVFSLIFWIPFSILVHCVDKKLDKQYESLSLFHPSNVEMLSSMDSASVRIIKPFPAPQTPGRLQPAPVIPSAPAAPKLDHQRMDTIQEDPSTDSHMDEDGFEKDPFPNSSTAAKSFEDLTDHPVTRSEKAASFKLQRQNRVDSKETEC

## COc1ccc(N2C(=O)N3[C@H](c4ccc(Cl)cc4)[C@@H]4C(=O)N(C5CCCCC5)C(=O)[C@@H]4[C@]3(C)C2=O)cc1
[1]
  AC50: 2.73 µM (active)
[2]
  AC50: 5.1 µM (active)
[3]
  AC50: 3.54 µM (active)
[4]
  AC50: 3.16 µM (active)

## COc1ccc(CCn2c(=S)[nH]c3cc(C(=O)NCc4ccco4)ccc3c2=O)cc1OC
[5]
  AC50: 17.7 µM (active)

## Cc1ccc(NC(=O)CCl)cc1S(=O)(=O)N1CCCCCC1
[6]
  CC50: 6.13 µM (active)
[5]
  AC50: 7.55 µM (active)
[7]
  AC50: 14.7 µM (active)
[8]
  EC50: 3.67 µM (active)

## COc1cc(OC)cc(C(=O)NNC(=O)c2ccccn2)c1
[9]
  EC50: 11.2 µM (active)
[10]
  CC50: 10.6 µM (active)
[11]
  IC50: 9.73 µM (active)
[12]
  IC50: > 79 µM (inactive)
[13]
  EC50: > 120 µM (not active)
[14]
  CC50: 12.6 µM (active)
[15]
  EC50: 11.6 µM (active)

## CCc1ccc(-c2cc3c(=O)n(CC(=O)NCCCN4CCN(CC)CC4)nc(C)n3n2)cc1
[16]
  IC50: > 25 µM (active)

## C[C@@H]1CN([C@H](C)CO)C(=O)Cc2cc(NC(=O)Nc3cccc4ccccc34)ccc2O[C@H]1CN(C)Cc1ccc(C(F)(F)F)cc1
[17]
  AC50: 3.46 µM (active)

## Cc1ccc(S(=O)(=O)Nc2ccc3c(c2)CC(=O)N([C@@H](C)CO)C[C@H](C)[C@@H](CN(C)Cc2ccc(C(=O)Nc4ccccc4N)cc2)O3)cc1
[17]
  AC50: 2.74 µM (active)

## C[C@H](CO)N1C[C@H](C)[C@@H](CN(C)Cc2ccc(Oc3ccccc3)cc2)Oc2c(NS(=O)(=O)c3ccc(Cl)cc3)cccc2C1=O
[17]
  AC50: 3.36 µM (active)

## C[C@@H]1CN([C@@H](C)CO)C(=O)c2cccc(NC(=O)c3nc4ccccc4s3)c2O[C@@H]1CN(C)Cc1ccc(C(=O)Nc2ccccc2N)cc1
[17]
  AC50: 2.88 µM (active)

## COCCN=C(S)NCc1ccc2[nH]c3c(c2c1)CCCC3
[16]
  IC50: 23.6 µM (active)

## O=C(NNC1=Nc2ccccc2SC1)c1ccc(F)cc1
[18]
  EC50: > 150 µM (not active)
[10]
  CC50: > 40 µM (active)
[11]
  IC50: 23.5 µM (active)
[19]
  EC50: 15.6 µM (active)
[14]
  CC50: > 20 µM (active)
[20]
  EC50: 3.72 µM (active)

## C[C@@H]1CN([C@H](C)CO)C(=O)Cc2cc(NC(=O)Nc3ccc(F)cc3)ccc2O[C@@H]1CN(C)Cc1ccc(Cl)c(Cl)c1
[17]
  AC50: 4.89 µM (active)
[21]
  AC50: 18.4 µM (active)

## Cc1cc(C)n2nc(NCc3cccc(Br)c3)nc2n1
[1]
  AC50: 7.45 µM (active)
[2]
  AC50: 2.92 µM (active)
[3]
  AC50: 7.14 µM (active)
[4]
  AC50: 7.3 µM (active)

## COc1ccc(S(=O)(=O)Nc2ccc3c(c2)CC(=O)N([C@H](C)CO)C[C@@H](C)[C@H](CN(C)Cc2ccc(Cl)c(Cl)c2)O3)cc1
[17]
  AC50: 1.94 µM (active)

## O=C(OCc1csc(Nc2ccccc2)n1)c1ccc(Cl)cc1
[18]
  EC50: 34.2 µM (active)
[22]
  IC50: > 69.5 µM (inactive)
[19]
  EC50: > 150 µM (not active)
[20]
  EC50: 12.8 µM (active)

## O=C1OCCN1C(=O)[C@H]1[C@H](c2ccc([N+](=O)[O-])cc2)C(c2cccc(Cl)c2)=NN1c1ccc(Br)cc1
[22]
  IC50: > 69.5 µM (inactive)
[12]
  IC50: > 79 µM (inactive)
